Assay results from PMC8620390, “New Multi-Targeted Antiproliferative Agents: Design and Synthesis of IC261-Based Oxindoles as Potential Tubulin, CK1 and EGFR Inhibitors” (Pharmaceuticals, 2021).
Several values for one entry are separate records, joined by “and”; a condition that tells them apart may be missing. Equal values may be shown once. Read-outs that look alike come from different tables or passages of the source. Marks after values point to notes of the source that are not given here.

Experiments:
EGFR = target: T1, EGFR (Homo sapiens, UniProt P00533); assay: EGFR kinase assay kit (Kinase-Glo MAX); format: biochemical; details: EGFR-TK kinase kit; read-out: EGFR Inhibition IC50 (converted)
T1 construct: enough purified recombinant EGFR enzyme, EGFR substrate, ATP, and kinase assay buffer; purchased Sigma Aldrich
T1 sequence (P00533 25-1210): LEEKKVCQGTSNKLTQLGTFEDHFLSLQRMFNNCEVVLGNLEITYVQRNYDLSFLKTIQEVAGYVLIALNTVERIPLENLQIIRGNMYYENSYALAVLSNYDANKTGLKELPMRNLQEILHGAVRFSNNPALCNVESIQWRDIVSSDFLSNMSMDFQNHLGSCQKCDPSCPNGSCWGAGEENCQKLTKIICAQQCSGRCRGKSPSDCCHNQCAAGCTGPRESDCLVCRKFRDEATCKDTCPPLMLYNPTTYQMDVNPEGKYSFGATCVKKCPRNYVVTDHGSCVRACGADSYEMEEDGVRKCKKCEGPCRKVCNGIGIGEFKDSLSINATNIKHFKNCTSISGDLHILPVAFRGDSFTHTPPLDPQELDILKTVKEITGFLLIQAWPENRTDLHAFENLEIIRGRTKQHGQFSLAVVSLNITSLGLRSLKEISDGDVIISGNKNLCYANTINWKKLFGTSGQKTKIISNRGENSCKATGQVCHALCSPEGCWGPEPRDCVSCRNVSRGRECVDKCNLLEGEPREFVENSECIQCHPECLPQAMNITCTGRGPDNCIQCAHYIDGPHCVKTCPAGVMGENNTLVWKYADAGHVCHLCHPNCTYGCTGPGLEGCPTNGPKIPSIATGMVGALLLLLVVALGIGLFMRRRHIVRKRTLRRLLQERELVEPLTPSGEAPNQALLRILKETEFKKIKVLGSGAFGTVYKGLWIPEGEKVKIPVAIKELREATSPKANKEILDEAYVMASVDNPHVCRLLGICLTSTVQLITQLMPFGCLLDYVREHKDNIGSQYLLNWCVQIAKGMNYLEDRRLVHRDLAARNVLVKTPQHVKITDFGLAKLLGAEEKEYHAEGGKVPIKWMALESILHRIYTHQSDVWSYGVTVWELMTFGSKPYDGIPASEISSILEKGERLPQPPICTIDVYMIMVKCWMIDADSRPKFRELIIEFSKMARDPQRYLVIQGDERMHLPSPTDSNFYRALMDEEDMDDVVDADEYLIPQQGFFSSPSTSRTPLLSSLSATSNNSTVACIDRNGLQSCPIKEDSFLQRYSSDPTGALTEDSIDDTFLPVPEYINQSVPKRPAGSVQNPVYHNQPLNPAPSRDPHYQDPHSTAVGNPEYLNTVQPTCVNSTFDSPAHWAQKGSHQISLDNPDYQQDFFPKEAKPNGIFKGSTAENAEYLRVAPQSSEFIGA
Procedure: The EGFR Kinase Assay Kit (Sigma Aldrich, St. Louis, […], USA) is designed to measure EGFR Kinase activity for screening and profiling applications using Kinase-Glo® MAX as a detection reagent. The EGFR Kinase Assay Kit (Sigma Aldrich, St. Louis, […], USA) comes in a convenient 96-well format, with enough purified recombinant EGFR enzyme, EGFR substrate, ATP, and kinase assay buffer for 100 enzyme reactions. The master mixture (25 μL per well) was prepared out of Kinase assay buffer (6 μL), ATP (500 μM, 1 μL), PTK substrate (50×, 1 μL) and water (17 μL) and added to each well. Inhibitor solution was made by dissolving 4b in a liquid labelled” inhibitor buffer”. An inhibitor solution (5 μL) was then added to each well, labelled as “Test Inhibitor”. For “Positive Control” and “Blank”, add 5 μL inhibitor buffer). EGFR was thawed on ice. Its tube was spun briefly to recover the full content of the tube. The enzyme was diluted with 1× Kinase assay buffer enzyme to 1 ng/μL. The reaction was initiated by adding 20 μL of diluted EGFR enzyme to the wells designated “Positive Control” and “Test Inhibitor Control”. The plate was incubated at 30 °C for 40 min. After the 40-min reaction, the Kinase-Glo Max (50 μL) reagent was added to each well. The plate was covered with aluminum foil, incubated at room temperature for 15 min and the luminescence was measured using the microplate reader.

COLO-205 [1] = assay: IC50 against COLO-205, SRB assay; format: cell-based; details: Homo sapiens, 0.001–100 μM
Procedure: (§1) Cell viability was assessed by the sulforhodamine B (SRB) assay. Aliquots of cell suspension (5 × 10^3 cells, 100 μL) were transferred into 96 well plates and incubated in complete media for 24 h. Cells were treated with another aliquot media (100 μL) containing compounds 3a–f, 4a–f, 6a–f, 7a–f, 9a–b at concentrations of 1 and 10 μM). After 72 h of drug exposure, cells were fixed by replacing media with trichloroacetic acid (TCA, 10%, 150 μL) and incubated at 4 °C for 1 h. The TCA solution was removed, and the cells were washed five times with distilled water. Aliquots of SRB solution (0.4%w/v, 70 μL) were added and incubated in a dark place at room temperature for 10 min. Plates were washed three times with 1% acetic acid and allowed to air dry overnight. Then, a solution of TRIS base and TRIS HCl (TRIS buffer, 10 mM, 150 μL) was added to dissolve protein bound SRB stain. The absorbance was measured at 540 nm using BMGLABTECH®–FLUOstar omega micro-plate reader (Ortenberg, Germany).
The same procedures used to screen two-dose anticancer activities were applied in determining IC50 values against COLO-205 using SRB assay. Cells were maintained at Roswell Park Memorial Institute media (RPMI media). The test was performed using 0.001–100 μM of compounds 4a (IC261), 4b, 4d, 4e, 6e and 6f. IC50 values were calculated using the equation for Boltzman sigmoidal concentration–response curve using the nonlinear regression fitting models by GraphPad, Prism version 5 (GraphPad Software Inc., La Jolla, CA, USA).

PC-3 = assay: Two-dose antiproliferative screening, SRB assay, PC-3; format: cell-based; details: triplicates; for Growth Inhibition (%) PC-3 1 μM Average: 72 h; for inhibition at 1 µM / inhibition at 10 µM: Homo sapiens, PC-3, 72 h; for inhibition at 1 µM: read-out: Growth Inhibition (%) PC-3 1 μM Average; for inhibition at 10 µM: read-out: Growth Inhibition (%) PC-3 10 μM Average
Procedure: (§2) MCF-7(breast adenocarcinoma), PC-3 (prostate cancer) and COLO-205 (colorectal cancer) were obtained from Nawah Scientific inc., (Mokatam, Cairo, Egypt). Cells were maintained in Dulbecco’s Modified Eagle’s media (DMEM media) supplemented with […] of streptomycin, 100 units/mL of penicillin and 10% of heat-inactivated fetal bovine serum in humidified, 5% (v/v) CO2 atmosphere at 37 °C.
as §1

COLO-205 [2] = assay: Two-dose antiproliferative screening, SRB assay, COLO-205; format: cell-based, human; details: triplicates; for Growth Inhibition (%) COLO-205 1 μM Average: 72 h; for inhibition at 1 µM / inhibition at 10 µM: Homo sapiens, COLO 205, 72 h; for inhibition at 1 µM: read-out: Growth Inhibition (%) COLO-205 1 μM Average; for inhibition at 10 µM: read-out: Growth Inhibition (%) COLO-205 10 μM Average
Procedure: as §2, §1

CK1 = assay: Casein Kinase 1 (CK1) 33P-ATP assay; format: biochemical
Procedure: The active CK1, kinase assay buffer, substrate solution and kinase dilution buffer were thawed on ice (^33P-ATP assay Cocktail). In a precooled microcentrifuge tube, 10 μL of kinase solution, 5 μL of substrate solution and 5 μL of cold water (4 °C) were added, then a blank control was set up. Each reaction was initiated by adding 5 μL of ^33P-ATP assay cocktail then incubated for 15 min in a water bath (30 °C), then 20 μL of the reaction mixture were spotted onto an individually precut strip of phosphocellulose P81 paper and allowed to air dry followed by washing using 1% H2SO4 with constant gentle stirring. A radioactive control was set up then 5 μL of γ-^33P-ATP assay cocktail was spotted on P81 paper, the sample was allowed to air dry for 2 min then the radioactivity count was recorded.

MCF-7 = assay: Two-dose antiproliferative screening, SRB assay, MCF-7; format: cell-based; details: triplicates; for Growth Inhibition (%) MCF-7 1 μM Average: 72 h; for inhibition at 1 µM / inhibition at 10 µM: Homo sapiens, MCF7, 72 h; for inhibition at 1 µM: read-out: Growth Inhibition (%) MCF-7 1 μM Average; for inhibition at 10 µM: read-out: Growth Inhibition (%) MCF-7 10 μM Average
Procedure: as §2, §1

Row | SMILES | IC50 (EGFR) | IC50 (COLO-205 [1]) [µM] | Growth Inhibition (%) PC-3 1 μM Average (PC-3) [%] | inhibition at 1 µM (PC-3) [%] | inhibition at 10 µM (PC-3) [%] | Growth Inhibition (%) COLO-205 1 μM Average (COLO-205 [2]) [%] | inhibition at 1 µM (COLO-205 [2]) [%] | inhibition at 10 µM (COLO-205 [2]) [%] | CK 1 inhibition IC50 (as printed in μM in discussion) (CK1) [µM] | Casein Kinase I Inhibition IC50 (CK1) [µg/mL] | Casein Kinase I Inhibition IC50 (CK1; IC261) | Growth Inhibition (%) MCF-7 1 μM Average (MCF-7) | inhibition at 1 µM (MCF-7) [%] | inhibition at 10 µM (MCF-7) [%]
1 | COc1cc(OC)c(/C=C2/C(=O)Nc3ccccc32)c(OC)c1 [Compound 4a, (E)-3-(2,4,6-trimethoxybenzylidene)indolin-2-one, reference compound] | 0.321 µM and 0.34 µM | 0.2 | 59.19 | 60 | 67.9 | 63.60 | 64 | 77.5 | 2.39 | 2.39 | 2.39 (4a, IC261) μg/mL | 43.49 ^c % | 44 | 58.9
2 | COc1cc(OC)c(/C=C2/C(=O)Nc3cc(Cl)ccc32)c(OC)c1 [Compound 4b, (E)-6-chloro-3-(2,4,6-trimethoxybenzylidene)indolin-2-one] | 0.549 µM | 0.2 | 64.05 | 65 | 71.7 | 73.32 | 74 | 82.5 | – | 1.92 | – | 45.3% | 46 | 59.1
